Laboratory results as given in the supplement of paper PMC10307832.

How the values were obtained:
Assay in all cases: relative viability (nuclei count vs DMSO), 5 days (fraction); higher = more cells survive
Erlotinib + Navitoclax = compound: C#Cc1cccc(Nc2ncnc3cc(OCCOC)c(OCCOC)cc23)c1 [Erlotinib] + CC1(C)CCC(c2ccc(Cl)cc2)=C(CN2CCN(c3ccc(C(=O)NS(=O)(=O)c4ccc(N[C@H](CCN5CCOCC5)CSc5ccccc5)c(S(=O)(=O)C(F)(F)F)c4)cc3)CC2)C1 [Navitoclax] (partner 0.5 µM)
How it was run: (§1)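 Each reported value is a median over duplicate plates. It expresses relative viability: treated-well nuclei count divided by vehicle-well nuclei count. Lung cancer cell lines in 1536-well plates were dosed by pin tool a day after seeding, alone with one drug or with a fixed anchor-drug dose plus five library-drug doses (not always all listed) in √10 steps, and nuclei were counted after 5 days.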

Erlotinib + Pictilisib = compound: C#Cc1cccc(Nc2ncnc3cc(OCCOC)c(OCCOC)cc23)c1 [Erlotinib] + CS(=O)(=O)N1CCN(Cc2cc3nc(-c4cccc5[nH]ncc45)nc(N4CCOCC4)c3s2)CC1 [Pictilisib] (partner 1 µM)
How it was run: as §1

AT9283 + Vorinostat = compound: O=C(Nc1c[nH]nc1-c1nc2ccc(CN3CCOCC3)cc2[nH]1)NC1CC1 [AT9283] + O=C(CCCCCCC(=O)Nc1ccccc1)NO [Vorinostat] (partner 1 µM)
How it was run: as §1

Erlotinib + Lapatinib = compound: C#Cc1cccc(Nc2ncnc3cc(OCCOC)c(OCCOC)cc23)c1 [Erlotinib] + CS(=O)(=O)CCNCc1ccc(-c2ccc3ncnc(Nc4ccc(OCc5cccc(F)c5)c(Cl)c4)c3c2)o1 [Lapatinib] (partner 2 µM)
How it was run: as §1

AT9283 + OSI-027 = compound: O=C(Nc1c[nH]nc1-c1nc2ccc(CN3CCOCC3)cc2[nH]1)NC1CC1 [AT9283] + COc1cccc2cc(-c3nc([C@H]4CC[C@H](C(=O)O)CC4)n4ncnc(N)c34)[nH]c12 [OSI-027] (partner 0.5 µM)
How it was run: as §1

Cell Line | relative viability (Erlotinib + Navitoclax; first compound 0.02 µM) | relative viability (Erlotinib + Navitoclax; first compound 0.2 µM) | relative viability (Erlotinib + Navitoclax; first compound 0.6325 µM) | relative viability (Erlotinib + Navitoclax; first compound 2 µM) | relative viability (Erlotinib + Pictilisib; first compound 0.02 µM) | relative viability (Erlotinib + Pictilisib; first compound 0.2 µM) | relative viability (Erlotinib + Pictilisib; first compound 0.6325 µM) | relative viability (Erlotinib + Pictilisib; first compound 2 µM) | relative viability (AT9283 + Vorinostat; first compound 0.003 µM) | relative viability (AT9283 + Vorinostat; first compound 0.03 µM) | relative viability (AT9283 + Vorinostat; first compound 0.09487 µM) | relative viability (AT9283 + Vorinostat; first compound 0.3 µM) | relative viability (Erlotinib + Lapatinib; first compound 0.02 µM) | relative viability (Erlotinib + Lapatinib; first compound 0.2 µM) | relative viability (Erlotinib + Lapatinib; first compound 0.6325 µM) | relative viability (Erlotinib + Lapatinib; first compound 2 µM) | relative viability (AT9283 + OSI-027; first compound 0.003 µM) | relative viability (AT9283 + OSI-027; first compound 0.03 µM) | relative viability (AT9283 + OSI-027; first compound 0.09487 µM) | relative viability (AT9283 + OSI-027; first compound 0.3 µM)
PC-3 [JPC-3] | 0.653 | 0.443 | 0.349 | 0.295 | 0.573 | 0.395 | 0.416 | 0.295 | 0.562 | 0.694 | 0.526 | 0.46 | 0.437 | 0.383 | 0.442 | 0.399 | 0.741 | 0.791 | 0.591 | 0.517
NCI-H1648 | – | – | – | – | – | – | – | – | 0.378 | 0.468 | 0.325 | 0.308 | – | – | – | – | 0.277 | 0.259 | 0.283 | 0.246
NCI-H1563 | – | – | – | – | 0.63 | 0.706 | 0.679 | 0.636 | – | – | – | – | 0.877 | 0.851 | 0.843 | 0.879 | 0.769 | 0.748 | 0.645 | 0.525
201T | 1.22 | 1.2 | 1.2 | 1.17 | 0.694 | 0.651 | 0.692 | 0.664 | 0.844 | 0.653 | 0.471 | 0.304 | 1.01 | 1.03 | 1.08 | 0.934 | 0.663 | 0.776 | 0.188 | 0.206
ChaGo-K-1 | 0.68 | 0.981 | 1.25 | 0.777 | 0.472 | 0.659 | 1.05 | 0.508 | 0.662 | 0.447 | 0.325 | 0.216 | – | – | – | – | 0.54 | 0.575 | 0.279 | 0.189
LOU-NH91 | 0.52 | 0.38 | 0.392 | 0.4 | 0.471 | 0.505 | 0.465 | 0.475 | 0.905 | 0.552 | 0.449 | 0.432 | 0.735 | 0.723 | 0.786 | 0.734 | 0.697 | 0.698 | 0.599 | 0.388
NCI-H522 | – | – | – | – | – | – | – | – | 0.782 | 0.549 | 0.527 | 0.376 | – | – | – | – | 0.665 | 0.57 | 0.549 | 0.567
NCI-H1395 | 1.09 | 1.02 | 1.32 | 1.13 | 0.71 | 0.638 | 0.567 | 0.733 | 0.579 | 0.494 | 0.337 | 0.299 | – | 1.11 | 1.02 | 0.961 | 0.523 | 0.541 | 0.356 | 0.363
LXF-289 | 0.904 | 0.991 | 0.933 | 0.869 | 0.775 | – | 0.798 | 0.704 | 0.751 | 0.56 | 0.224 | 0.168 | 0.89 | 0.953 | 0.899 | 0.889 | 0.81 | 0.769 | 0.166 | 0.0735
COR-L23 | 1.16 | 1.04 | 1.08 | 1 | 0.898 | 0.692 | 1.04 | 0.656 | 0.443 | 0.119 | 0.0932 | 0.0899 | 0.944 | 0.979 | 1.16 | 0.96 | 0.755 | 0.658 | 0.245 | 0.153
